The values below come from ChEMBL document CHEMBL1201862, “PubChem BioAssay data set” (2004).

Common to all, as to test: NCI-60 cell line screen, 48 h
Assay [1] concerns U-251.
Assay [2] concerns RPMI-8226.
For assay [3], the system named is OVCAR-8.
Assay [4] has as its system M14.
In assay [5] the test system is DU-145.
For assay [6], the system named is UACC-62.
In assay [7] the test system is COLO 205.
The test system of assay [8] is HOP-62.
The test system of assay [9] is SF-268.
Assay [10] has as its system 786-0.
Assay [11] has as its system HCT-15.
Assay [12] concerns BT-549.
The test system of assay [13] is OVCAR-4.
The subject of assay [14] is OVCAR-5.
For assay [15], the system named is K562.
Assay [16] relates to NCI/ADR-RES.
The test system of assay [17] is LOX IMVI.
Assay [18] deals with Hs-578T.
Assay [19] relates to NCI-H460.

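Briefly, cells in 96-well plates were exposed to five compound concentrations for 48 h, and endpoints were estimated by linear interpolation. Abbreviation: GI50, concentration required for 50% inhibition of growth.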 Calls of active or inactive are those of the source. No stated cut-off is given here; in the data, active = GI50 up to about 1.1 µM and inactive = higher.

As to `COc1cc(N2C(=O)C(=O)C3(CCCCC3)C2=O)cc(OC)c1OC`, the GI50 in [1], in assay [2], in assay [3], in assay [4], in assay [5] and in assay [6] was > 100 µM (inactive) each time. Also, the GI50 in assay [7] was > 100 µM (inactive); in assay [8], 57.5 µM (inactive); in assay [9], > 100 µM (inactive); in assay [10], > 100 µM (inactive); in assay [11], over 100 µM; in assay [12], > 100 µM (inactive). For the same compound, the GI50 in assay [13], in assay [14], in assay [15], in assay [16] and in [17] was > 100 µM (inactive) in each case.

Consider `O=C(Nc1c(Cl)cc([N+](=O)[O-])cc1Cl)C(=O)C1C(=O)NC(=S)NC1=O`, for which the GI50 in [1], in [2], in assay [3], in assay [4], in assay [6] and in assay [8] was > 100 µM (inactive) in each case. Also, the GI50 in [9] was > 100 µM (inactive); in assay [10] it was > 100 µM (inactive); in assay [18], > 100 µM (inactive); in [11], over 100 µM; in assay [12], > 100 µM (inactive); in [13] it was > 100 µM (inactive). In addition, the GI50 in [14], in assay [15], in [16], in [19] and in assay [17] was > 100 µM (inactive) in each case.

For the compound `Cc1cc(S(=O)(=O)Nc2nc3ccsc3c(=O)n2N)c(S)cc1Cl`, the GI50 in [1] was 57.1 µM (inactive); in assay [2], > 100 µM (inactive); in [3] it was > 100 µM (inactive); in assay [4], 68.7 µM (inactive); in assay [5], > 100 µM (inactive); in [6] it was 38.7 µM (inactive). Further, the GI50 is > 100 µM (inactive) in assay [7]; 39.9 µM (inactive) in [8]; 42.2 µM (inactive) in assay [9]; > 100 µM (inactive) in assay [10]; 50.7 µM in assay [11]; > 100 µM (inactive) in assay [12]. The GI50 in assay [13] is 68.1 µM (inactive); in assay [14] it was 35.2 µM (inactive); in assay [15], 86.9 µM (inactive); in assay [16] it was 85.3 µM (inactive); in assay [19], 53.2 µM (inactive); in [17], 78.9 µM (inactive).

As for `CC(=O)OC1C(C)OC(OC(=O)C2CCC3C(C2)OC2(CC(OC(=O)/C=C/c4ccccc4)C(C)CO2)C32CO2)C(OC2OC(C)C(O)C(OC(C)=O)C2O)C1O` (centres undefined), the GI50 in [1], in [2], in assay [3], in assay [4], in assay [5] and in assay [6] was < 0.01 µM (active) in each case. Further, the GI50 in assay [7] was < 0.01 µM (active); in [8] it was < 0.012 µM (active); in [9] it was < 0.01 µM (active); in [10] it was < 0.01 µM (active); in assay [18], < 0.01 µM (active); in assay [11], 0.319 µM. Further, the GI50 in assay [12], in assay [13], in assay [14], in [15], in assay [19] and in [17] was < 0.01 µM (active) in each case.

As to `O=C(O)c1ccccc1C(=O)Nn1cnnc1`, the GI50 in assay [1], in [2], in assay [3], in assay [4], in assay [5] and in [6] was > 100 µM (inactive) in each case. Besides, the GI50 is > 100 µM (inactive) in [7]; > 100 µM (inactive) in assay [8]; > 100 µM (inactive) in [9]; > 100 µM (inactive) in [10]; over 100 µM in assay [11]; > 100 µM (inactive) in assay [12]. For the same compound, the GI50 in [13], in assay [14], in assay [15], in assay [16] and in assay [17] was > 100 µM (inactive) throughout.

Take `O=C(Cc1ccccc1)Nn1c(-c2ccccc2)nc2ccccc2c1=O`: the GI50 in assay [1], in assay [2], in assay [3], in assay [4], in assay [5] and in assay [6] was > 100 µM (inactive) in each case. Besides, the GI50 was > 100 µM (inactive) in assay [7]; > 100 µM (inactive) in assay [8]; > 100 µM (inactive) in [9]; > 100 µM (inactive) in assay [10]; 42.3 µM (inactive) in assay [18]; > 100 µM (inactive) in assay [12]. Further, the GI50 in assay [13], in assay [14], in assay [15], in assay [19] and in assay [17] was > 100 µM (inactive) in each case.

For `Cc1cccc2c1Oc1cc(Cl)ccc1C2NC(=O)CCN1CCOCC1` (centres undefined), the GI50 in [1] was > 100 µM (inactive); in assay [3], > 100 µM (inactive); in assay [4], > 100 µM (inactive); in assay [5] it was > 100 µM (inactive); in assay [6] it was 50.1 µM (inactive); in assay [7], > 100 µM (inactive). Further, the GI50 in [8] is > 100 µM (inactive); in assay [9], > 100 µM (inactive); in assay [10], > 100 µM (inactive); in assay [11] it was over 100 µM; in assay [12], > 100 µM (inactive); in assay [13], > 100 µM (inactive). For the same compound, the GI50 in assay [14], in assay [15], in assay [16], in assay [19] and in [17] was > 100 µM (inactive) each time.

As to `O=[N+]([O-])c1ncc(N(CCO)CCO)s1`, the GI50 is 45.3 µM (inactive) in [1]; 19.5 µM (inactive) in assay [2]; 53.5 µM (inactive) in [3]; 34.8 µM (inactive) in assay [4]; 65.9 µM (inactive) in assay [5]; 19.8 µM (inactive) in assay [6]. In addition, the GI50 in assay [7] was 21.9 µM (inactive); in assay [8], 42.9 µM (inactive); in assay [9] it was 40.3 µM (inactive); in assay [10], 34 µM (inactive); in assay [18], 32.1 µM (inactive); in assay [11], 33.3 µM. Further, the GI50 in assay [12] was 26.5 µM (inactive); in assay [13], > 100 µM (inactive); in assay [14], 78.5 µM (inactive); in assay [15], 20.8 µM (inactive); in [19] it was 61.2 µM (inactive); in assay [17], 15.6 µM (inactive).
